Laboratory results published in ChEMBL document CHEMBL1157539, “Thousands of chemical starting points for antimalarial lead identification” (Nature, 2010).

Tested on: Plasmodium falciparum
Assay: GSK_TCMDC: Inhibition of Plasmodium falciparum 3D7 in whole erythrocytes, using parasite LDH activity as an index of growth.
Assay type: functional, organism-based
Details: Plasmodium falciparum, 3D7

| Structure (SMILES) | XC50 |
| --- | --- |
| O=S(=O)(Nc1ccc(CCN2CCC(N3CCCCC3)CC2)cc1)c1cccc(C(F)(F)F)c1 | 702 nM |
| CSc1nc2cc3c(cc2n1C(=O)c1ccc(C)cc1)OCCO3 | 166 nM |
| COc1ccc2ncc(F)c(CCN3CC[C@@H](CNCc4cc(C)c5c(c4)OCCO5)C3)c2n1 | 890 nM |
| C=C[C@H]1CN2CC[C@H]1C[C@H]2[C@H](O)c1cc(/C=C/c2ccc(F)cc2)nc2ccc(OC)cc12 | 34.2 nM |
| O=C(NCC1CCN(Cc2cccc(C(F)(F)F)c2)C1)c1cc(-c2cccc(Cl)c2)cs1 (stereo not drawn) | 803 nM |
| COc1ccc2nc(C)cc(Nc3ccc(Cl)cc3)c2c1 | 946 nM |
| COc1cccc(C(=O)N2CCN(Cc3cccc(NC(=O)c4cccs4)c3)CC2)c1 | 483 nM |
| COc1ccc(-c2cnc3ccc(NCc4ccc(S(N)(=O)=O)cc4)nn23)cc1 | 796 nM |
| CCc1nc(N)nc(N)c1-c1ccccc1 | 1180 nM |
| CNCCNc1nccc(N2CCc3ncnc(Nc4ccc(OCc5cccc(F)c5)c(Cl)c4)c3C2)n1 | 197 nM |
| CC(=O)Nc1nc(C)c(-c2csc(Nc3ccc(Cl)cc3)n2)s1 | 258 nM |
| O=C(/C=C/c1ccc(Cl)c(Cl)c1)NCCCCCN1CCC(NC(=S)Nc2ccc(Cl)cc2)CC1 | 443 nM |
| COc1ccccc1C1CC(c2ccccc2)=NN1C(=O)c1ccccc1 (stereo not drawn) | 296 nM |
| CC(C)(C)c1nn(-c2ccc(Cl)cc2)c2[nH]c(=O)c(CNCc3ccc4c(c3)OCO4)cc12 | 810 nM |
| COc1ccc2ccc(F)c(CC(=O)N3CCOC(CNCc4cccc(-c5ccc(F)cc5)n4)C3)c2n1 (stereo not drawn) | 1010 nM |
| N#Cc1ccc(C2CCN(CC[C@H](N)Cc3ccc(Cl)s3)CC2)cc1 | 1260 nM |
| CCNc1cc(C(=O)N[C@@H](Cc2ccccc2)[C@H](O)CN[C@@H]2CCc3ccccc32)cc(N2CCCC2=O)c1 | 1020 nM |
| CNS(=O)(=O)c1ccc2c(c1)nc(C1CCN(CC3CCC(NC(=O)/C=C/c4ccc(Cl)c(Cl)c4)CC3)CC1)n2C (stereo not drawn) | 670 nM |
| Cc1noc(C)c1-c1ccc2c(Nc3ccccc3C(C)(C)C)c(C(=O)NCc3cccc4ccccc34)cnc2c1 | 941 nM |
| CN1CCC(COc2ccc(CN3CCC(NC(=O)c4cccc(Cl)c4)CC3)cc2)CC1 | 889 nM |
| CN(C)C1CCN(CC#Cc2cc3ncnc(Nc4ccc(OCc5cccc(F)c5)c(Cl)c4)c3s2)CC1 | 887 nM |
| COc1cc(NC(=O)/C=C/c2cc(F)cc(F)c2F)cc(OCCN2CCC(O)(c3ccccc3)CC2)c1 | 166 nM |
| O=C(Nc1ccc(C(=O)N2CCN(CCN3CCN(c4cccc(C(F)(F)F)c4)CC3)CC2)cc1)c1cc(Cl)cc(Cl)c1 | 827 nM |
| NC1(C(=O)O)Cc2ccc(Cl)cc2C1 (stereo not drawn) | 734 nM |

| Structure (SMILES) | XC50 |
| --- | --- |
| O=C(NC1CCN(Cc2ccccc2)CC1)c1ccc(-c2nc3cc(F)c(F)cc3[nH]2)s1 | 835 nM |
| CCc1cc(NC2CCN(C)CC2)nc(Nc2cccc(OC)c2)n1 | 856 nM |
| FC(F)(F)c1cc(CNCCCNc2nc3ccncc3[nH]2)ccc1Cl | 1010 nM |
| FC(F)(F)c1ccc2[nH]c(-c3ccc(-c4cccc(CNCc5cnn(-c6ccccc6)n5)c4)cc3)nc2c1 | 652 nM |
| O=[N+]([O-])c1ccc(C(O)P(=O)(c2ccccc2)c2ccccc2)cc1 (stereo not drawn) | 341 nM |
| CC(=O)Nc1ccc(S(=O)(=O)N(Cc2cccc(Oc3ccccc3)c2)C2CCN(C/C=C(\C)CCC=C(C)C)CC2)cc1 | 192 nM |
| COc1ccc(C(=O)Nc2cc(Cl)c3c(c2)C2CCCN2CC3)cc1C(F)(F)F (stereo not drawn) | 753 nM |
| Cc1ccc(S(=O)(=O)n2cc(-c3ccnc(N)c3)c3cc(Br)cnc32)cc1 | 896 nM |
| CSc1ccc(CN2CCC(NC(=O)c3ccc(-c4cccc(Cl)c4)s3)CC2)cc1 | 1290 nM |
| CCOc1cccc(C(=O)Nc2cccc(CN3CCCN(Cc4ccc(O)cc4)CC3)c2)c1 | 824 nM |
| COc1cc2nc(N3CCN(C(=O)c4cccc(I)c4)CC3)nc(N)c2cc1OC | 1320 nM |
| CCOc1ccc(-n2nc3c(Cl)nnc(-c4ccccc4)c3c2-c2ccccc2)cc1 | 226 nM |
| O=C(N[C@@H](Cc1ccccc1)C(=O)NCCN1CCCC1)c1ccc(O)c(-c2ccc(Cl)c(Cl)c2)c1 | 800 nM |
| O=c1cc(NCCCN(Cc2cc3c(Cl)cc(Cl)cc3[nH]2)Cc2cc3c(Cl)cc(Cl)cc3[nH]2)[nH]c2ccccc12 | 121 nM |
| Oc1cc2ccccc2cc1CNC1CCCCC1 | 586 nM |
| Cc1cc(NC(=O)Nc2ccc(C#N)cc2)c2ccccc2n1 | 567 nM |
| O=C(c1ccccc1)C1CC1CN1CC=C(c2c[nH]c3ccccc23)CC1 (stereo not drawn) | 525 nM |
| Cc1cc(OCC2CCCN(c3ncc(C(=O)NC4CC4)cc3Cl)C2)ccc1F (stereo not drawn) | 1490 nM |
| CC(=O)Nc1nc(C(=O)Nc2cccc(-c3ccc4c(cnn4CC4CC4)c3)c2)cs1 | 735 nM |
| FC(F)(F)c1ccc2[nH]c(-c3cccc(-c4cccc(CNCC5CCCO5)c4)c3)nc2c1 (stereo not drawn) | 422 nM |
| CCN(CC)CCN(Cc1ccc(-c2ccc(C(F)(F)F)cc2)cc1)C(=O)Cn1cc(Cc2cnn(C)c2)c(=O)n2nc(-c3ccccc3)cc12 | 730 nM |
| Cc1cnc(C(=O)Nc2cccc(-c3cccc(-c4nc5cc(F)ccc5[nH]4)c3)c2)cn1 | 771 nM |
| CCCOc1ccc2ccccc2c1CNCCCCCCNCc1c(OCCC)ccc2ccccc12 | 791 nM |
| COCCSc1nc2scc(C)c2c(=O)n1Cc1cccc(OC)c1 | 912 nM |
